Measurements from patent US9572831B2, “Composition and method for sulfated non-anticoagulant low molecular weight heparins in cancer and tumor metastasis” (priority 2013, dated 2017).
Like-named read-outs stand apart in the source and are kept apart here.

Columns and labels:
253JBV bladder cells = assay: Western blots of bladder cancer cell proteins; format: cell-based; details: 48 hour; Cisplatin 10 ug/ml, S-NACH 20 ug/ml, LMWH 20 ug/ml
Procedure: 253JBV bladder cells were cultured and treated [Control (PBS), Cisplatin (10 ug/ml), S-NACH (20 ug/ml), LMWH (20 ug/ml)] for 48 hour. Total proteins were collected to quantitate expression of the proteins using western blots.

MCF7-WT cells = assay: Nanoparticle Dox formulations in mice with MCF7-WT tumors; format: in vivo; details: treatment begun 10 days after inoculation; n=8
From the text: Mice were inoculated with 1.4×10^7 MCF7-WT cells. […] Tumor volume measurements were obtained over time course shown. Values are mean tumor volume in mm^3±SEM, n=8 mice/group.

MCF7-R cells = assay: Nanoparticle Dox formulations in mice with MCF7-R tumors; format: in vivo
Procedure: FIG. 20 depicts anti-tumor efficacy of nanoparticle formulations encapsulating Doxorubicin with and without LMWHs vs. un-encapsulated Doxorubicin in mice with MCF7-R Tumors, in accordance with embodiments of the present invention. […] Treatments, as shown in legend, were begun after tumors had reached a size of 50-100 mm^3. Tumor volumes were measured daily. Animals were euthanized when Controls reached a size of 2000 mm^3 (as per IACUC approval).
In vivo data using in mice xenograft (MCF-7R) are shown in Table 5 (amounts of doxorubicin and NACH injected in all cases were 0.625 mg/kg and 2.5 mg/kg body weight).

MPanc96-luc cells = format: in vivo, athymic nude mice; details: S-NACH 20 mg/kg s.c. daily, gemcitabine 100 mg/kg i.p. twice a week, 28 days
Procedure: MPanc96-luc cells were harvested as described above and were orthotopically implanted (2×10^5 cells in 50 μl PBS per mouse) in the pancreas of anesthetized athymic nude mice. Just before treatment initiation, animals (n=10 per group) were randomized by tumor mass detected by an in vivo imaging system (IVIS, described below). Heparin derivatives S-NACH at 20 mg/kg and tinzaparin at 5 mg/kg were administered subcutaneously daily. Gemcitabine at 100 mg/kg was injected intraperitoneally twice a week alone or in combination with either S-NACH or tinzaparin. All mice used for treatment response evaluations were euthanized after 28 days. See Table 2 for the protocol of the study. Imaging was performed once per week to monitor tumor growth. Mice bearing MPanc96-luc tumors were anaesthetized using isoflurane, injected subcutaneously with 50 μl D-luciferin (30 mg/ml), then imaged. Photographic and luminescence images were taken at constant exposure time. Xenogen IVIS® Living Image software version 3.2 was used to quantify non-saturated bioluminescence in regions of interest. Light emission between 5.5×10^6-7.0×10^10 photons was assumed to be indicative of viable luciferase-labeled tumor cells while emissions below this range were considered as background. Bioluminescence was quantified as photons/second for each region of interest. In vivo tumor kinetic growth and metastasis were monitored by signal intensity. Ex vivo imaging was performed to confirm the signal intensity in the tumors after the termination. All specimens were analyzed by histology for routine analysis. Specimens were fixed in 10% buffered formalin, processed routinely, and embedded in paraffin. Then, after fixation, the specimens were transferred into the embedding chambers to hold the specimens in position until the paraffin became solid to prevent further rotation. Four μm serial sections were cut, and then stained using haematoxylin and eosin. Sections were evaluated for various pathologic parameters using a light microscope (Leica, Buffalo Grove, Ill.).

[1] = Whole blood clotting times by Sonoclot Analyzer and TEG; format: in vivo; details: intravenous, 10 mg/kg, mice, n=5
Procedure: Two heparins, commercial formulation Enoxaparin and non-anticoagulant heparin (NACH) including S-NACH or S-SNACH were evaluated for their effects on coagulation. Whole blood clotting times were measured by the Sonoclot Analyzer (left panel) and by TEG (right panel); n=5.

[2] = system: intrinsic pathway of the coagulation cascade; assay: APTT assay; format: biochemical
Procedure: Activated Partial Thromboplastin Time (aPTT) is sensitive to all factors in the intrinsic pathway of the coagulation cascade and the presence of heparin. The aPTT was measured for each of the 8 USP heparins, using the ACL 8000 Beckman Coulter coagulation analyzer and the Trinity Biotech Trini CLOT Automated aPTT assay kit (Berkeley Heights, N.J.). Additionally, aPTT was measured for heparin, LMWH, and S-NACH.

[3] = Mouse deaths over all experiments; format: in vivo, mice
Procedure: In the second experiment, a higher concentration of S-SNACH (20 mg/kg) was used. […] The percentile death of mice was high in the LMWH group and reached 6 animals (50%) at the end of the experiment due to internal bleeding after two invasive surgeries. At the end of all experiments, the percentile death among all groups was calculated and compared.
The average dose of LMWH for enoxaparin in humans is 1.0-1.5 mg/kg and relatively higher in mice. In the experiment performed in the present invention, 5-10 mg/kg was used for LMWH (tinzaparin) and as high as 20-100 mg/kg was used for SNACH.

Molecule: N.N.[Cl][Pt][Cl] [Cisplatin]
- E-cadherin protein expression (253JBV bladder cells): increased
- MMP-2 protein expression (253JBV bladder cells): reduced

Molecule: COc1cccc2c1C(=O)c1c(O)c3c(c(O)c1C2=O)C[C@@](O)(C(=O)CO)C[C@@H]3O[C@H]1C[C@H](N)[C@H](O)[C@H](C)O1 [Doxorubicin]
- tumor growth (tumor volume) (MCF7-WT cells): effectively inhibited
- tumor volume over time (MCF7-R cells; FIG. 20 Panel A): same pattern of tumor growth as untreated controls
- Tumor Mass (MCF7-R cells; doxorubicin 0.625 mg/kg, NACH 2.5 mg/kg body weight, mean): 1.3 g

Molecule: Nc1ccn([C@@H]2O[C@H](CO)[C@@H](O)C2(F)F)c(=O)n1 [Gemcitabine]
- tumor luciferin signal intensity (MPanc96-luc cells): reduced
- tumor weights (MPanc96-luc cells): reduced
- tumor luciferin signal intensity (MPanc96-luc cells; listed as GEM): suppression of tumor signal intensity

Molecule: Enoxaparin
- clot times (whole blood clotting time, time to clot initiation) [1]: significantly prolonged

Molecule: Heparin
- aPTT [2]: increased aPTT in a dose-dependent manner
- rate of death among the mice [3]: higher mortality
